What was measured:
[1] = system: Two-Spotted Spider Mite (Tetranychus urticae); test: Two-spotted spider mite (Tetranychus urticae) spray test on kidney bean; format: in vivo; details: Tetranychus urticae, 168 h, after 7 days, read-out: acaricidal activity; for pest or weed control at 20 ppm: active compound concentration 20 ppm
Summary of the method: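 Kidney bean plants at the two-leaf stage carried 50-100 adult mites and were sprayed one day later with compound in DMF/polyoxyethylene alkyl phenyl ether diluted in water. Ammonium salt and penetration enhancer at 1000 ppm were added if needed. Acaricidal activity (% mites killed) was scored after 7 days in a greenhouse.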

[2] = system: Cucurbit Leaf Beetle (Aulacophora femoralis); test: Cucurbit leaf beetle (Aulacophora femoralis) cucumber leaf dip test; format: in vivo; details: after 7 days; for pest or weed control at 4 ppm / pest or weed control at 20 ppm: Aulacophora, foliar, 168 h, read-out: insecticidal activity; for pest or weed control at 4 ppm: active compound concentration 4 ppm
Summary of the method: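 Cucumber leaves dipped in compound formulated with DMF and polyoxyethylene alkyl phenyl ether, diluted in water, with ammonium salt or ammonium salt plus penetration enhancer at 1000 ppm added if necessary; dried leaves placed on sterilized soil with five second-instar larvae. Kept at 25° C; larval mortality counted after 7 days.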

[3] = system: Larvae of Spodoptera litura; test: Larvae of Spodoptera litura, method using artificial feeds; format: in vivo; details: Spodoptera litura, 168 h, artificial feed, after 7 days, read-out: insecticidal activity (pesticidal ratio); for pest or weed control at 4 ppm: active compound concentration 4 ppm; for pest or weed control at 20 ppm: active compound concentration 20 ppm
Summary of the method: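 Compound formulated in dimethylformamide with polyoxyethylene alkyl phenyl ether emulsifier, water-diluted and poured onto artificial diet. Five 3rd-instar Spodoptera litura larvae per cup, held at 25° C and 50-60% humidity. Mortality after 7 days expressed as pesticidal ratio.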

Thrips palmi = Thrips palmi spray test (THRIPL); format: in vivo; details: active compound concentration 20 ppm; after 6 days
Summary of the method: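 Cucumber seedlings sprayed with compound formulated in DMF/polyoxyethylene alkyl phenyl ether and diluted in water, ammonium salt ± penetration enhancer at 1000 ppm added if needed. About 100 T. palmi eggs attached, plants held caged at 100% humidity, 23 °C. Percent activity scored from feeding damage after 6 days, 100 = no damage, 0 = as untreated.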

[4] = system: adult engorged female Boophilus microplus ticks; test: Test against Boophilus microplus (dip); format: in vivo; details: Rhipicephalus microplus, 168 h, read-out: activity (mortality)
Ctenocephalides felis = test: Test against Ctenocephalides felis (CTECFE), blood feeding; format: in vivo; details: Ctenocephalides felis, in Bos taurus, 48 h, read-out: activity (mortality)
[5] = system: Lucilia cuprina 1st instar larvae; test: Test against Lucilia cuprina larvae; format: in vivo; details: 48 h, read-out: activity (larval mortality)
Method: (§1) Solvent: dimethyl sulfoxide
10 mg active compound are dissolve in 0.5 mL dimethyl sulfoxide. Serial dilutions are made to obtain the desired rates.
Approximately 20 Lucilia cuprina 1st instar larvae are transferred into a test tube containing 1 cm^3 of minced horse meat and 0.5 ml aqueous dilution of test compound. After 48 hrs percentage of larval mortality are recorded. 100% efficacy=all larvae are killed, […].

Musca domestica = test: Test against Musca domestica; format: in vivo; details: Musca domestica, 48 h, read-out: activity (mortality)
Method: as §1
To produce a suitable preparation of active compound, 10 mg of active compound are dissolved in 0.5 ml solvent, and the concentrate is diluted with water to the desired concentration. Prior to the assay, a piece of kitchen sponge is soaked with a mixture of sugar and compound solution and placed into a container. 10 adults (Musca domestica) are placed into the container and closed with a perforated lid. After 2 days mortality in % is determined. 100% means that all the flies have been killed; 0% means that none of the flies have been killed.

[6] = system: mustard beetle larvae (Phaedon cochleariae); test: Phaedon cochleariae test (PHAECO spray application); format: in vivo; details: application rate 500 g/ha; after 7 days
Method: To produce a suitable preparation of active compound, 1 part by weight of active compound is mixed with the stated amount of solvent and emulsifier, and the concentrate is diluted with emulsifier-containing water to the desired concentration. Chinese cabbage (Brassica pekinesis) leaf-disks are sprayed with a preparation of the active ingredient of the desired concentration. Once dry, the leaf disks are infested with mustard beetle larvae (Phaedon cochleariae). After 7 days mortality in % is determined. 100% means that all beetle larvae have been killed and 0% means that none of the beetle larvae have been killed.

[7] = system: fall armyworm larvae (Spodoptera frugiperda); test: Spodoptera frugiperda test (SPODFR spray application); format: in vivo; details: application rate 500 g/ha; after 7 days
Method: To produce a suitable preparation of the active compound, 1 part by weight of active compound is mixed with the stated amount of solvent and emulsifier, and the concentrate is diluted with emulsifier-containing water to the desired concentration. Maize (Zea mais) leaf sections are sprayed with a preparation of the active ingredient of the desired concentration. Once dry, the leaf sections are infested with fall armyworm larvae (Spodoptera frugiperda). After 7 days mortality in % is determined. 100% means that all caterpillars have been killed and 0% means that none of the caterpillars have been killed.

[8] = system: two spotted spidermite (Tetranychus urticae), OP-resistant; test: Tetranychus urticae test, OP-resistant (TETRUR spray application); format: in vivo; details: application rate 500 g/ha; after 6 days
Method: To produce a suitable preparation of active compound, 1 part by weight of active compound is mixed with the stated amount of solvent and emulsifier, and the concentrate is diluted with emulsifier-containing water to the desired concentration. French beans (Phaseolus vulgaris) which are heavily infested with all stages of the two spotted spidermite (Tetranychus urticae), are sprayed with a preparation of the active ingredient at the desired concentration. After 6 days mortality in % is determined. 100% means that all spider mites have been killed and 0% means that none of the spider mites have been killed.

[9] = log P by HPLC on reversed phase columns (EEC directive 79/831 Annex V.A8); format: physicochemical
Method: Calibration was done with not branched alkan2-ones (with 3 to 16 carbon atoms) with known log P-values (measurement of log P values using retention times with linear interpolation between successive alkanones). lambda-maX-values were determined using UV-spectra from 200 nm to 400 nm and the peak values of the chromatographic signals.

[10] = system: Tobacco Cutworm (Spodoptera litura) Larvae; test: Tobacco cutworm (Spodoptera litura) larvae, sweet potato leaf dip test; format: in vivo; details: active compound concentration 20 ppm; dead larvae after 7 days
Summary of the method: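 Sweet potato leaves were dipped in DMF/emulsifier test solution at the set concentration and air-dried. Ten third-instar S. litura larvae were placed per dish at 25 °C, with fresh leaves added on days 2 and 4. Mortality was counted on day 7, given as % insecticidal activity averaged over two dishes.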

[11] = active compound concentration 20 ppm

`O=C(NCc1cnc(N2CCC(c3cc(C(F)(F)F)cc(C(F)(F)F)c3)(C(F)(F)F)C2O)cc1C(F)(F)F)C1CC1` (stereo not drawn) [A5-27, N-{[6-{3-[3,5-bis(trifluoromethyl)phenyl]-2-hydroxy-3-(trifluoromethyl)pyrrolidin-1-yl}-4-(trifluoromethyl)pyridin-3-yl]methyl}cyclopropanecarboxamide] showed a pest or weed control at 20 ppm [1] of 100%, a pest or weed control at 4 ppm [2] of 100% and a pest or weed control at 20 ppm [2, 11] of 100%. For the same compound, the pest or weed control at 4 ppm [3] was 100%, the pest or weed control at 20 ppm [3] was 100% and the “insecticidal activity (by feeding damage degree)” value (Thrips palmi) was 90%. The mortality at 100 ppm [4] was 100%, the mortality at 100 ppm (Ctenocephalides felis) was 100% and the mortality at 100 ppm [5] was 100%. The mortality at 100 ppm (Musca domestica) was 100%.
For `CCC(=O)NCc1cc(F)c(N2CCC(c3cc(Cl)cc(Cl)c3)(C(F)(F)F)C2O)nc1Cl` (stereo not drawn) [A3-356], the insecticidal activity [2, 11] was 100%, the “activity (mortality)” value [6] was 100% and the “activity (mortality)” value [7] was 100%. For the same compound, the “activity (mortality)” value [8] was 100% and the logP ([9]; HPLC on reversed phase columns) was 3.86.
With `Cc1cc(N2CCC(c3cc(Cl)cc(Cl)c3)(C(F)(F)F)C2O)ccc1CNC(=O)CC(F)(F)F` (mixture of isomers) [A1-79] the “activity (mortality)” value [6] was 100%, the “activity (mortality)” value [7] was 83% and the “activity (mortality)” value [8] was 90%. For the same compound, the “log P” value [9] was 4.09.
`O=C(NCc1ccc(N2CCC(c3cc(C(F)(F)F)cc(C(F)(F)F)c3)(C(F)(F)F)C2O)cc1Cl)C1CC1` (stereo not drawn) [A1-27, N-(4-{3-[3,5-bis(trifluoromethyl)phenyl]-2-hydroxy-3-(trifluoromethyl)pyrrolidin-1-yl}-2-chlorobenzyl)cyclopropanecarboxamide] gave an insecticidal activity [10] of 100%, a pest or weed control at 20 ppm [1] of 100% and a pest or weed control at 20 ppm [2, 11] of 100%. The pest or weed control at 20 ppm [3] was 100%, the mortality at 100 ppm (Ctenocephalides felis) was 100% and the mortality at 100 ppm [5] was 100%. It also gave a mortality at 100 ppm (Musca domestica) of 100%.
For `O=C(NCc1cc(F)c(N2CCC(c3cc(Cl)cc(Cl)c3)(C(F)(F)F)C2O)nc1Cl)C1CC1` (stereo not drawn) [A3-359], the “activity (mortality)” value [6] was 100%, the “activity (mortality)” value [7] was 100% and the “activity (mortality)” value [8] was 100%.
`CCC(=O)NCc1ccc(N2CCC(c3cc(Cl)c(Cl)c(Cl)c3)(C(F)(F)F)C2O)nc1C(F)(F)F` (stereo not drawn) [A3-13, N-({6-[2-hydroxy-3-(3,4,5-trichlorophenyl)-3-(trifluoromethyl)-pyrrolidin-1-yl]-2-(trifluoromethyl)pyridin-3-yl}methyl)propanamide] gave an insecticidal activity [10] of 100%, a pest or weed control at 20 ppm [1] of 100% and a pest or weed control at 20 ppm [2, 11] of 100%. It also gave a pest or weed control at 20 ppm [3] of 100%, a mortality at 20 ppm [4] of 100% and a mortality at 100 ppm (Ctenocephalides felis) of 100%. It also gave a mortality at 100 ppm [5] of 100% and a mortality at 100 ppm (Musca domestica) of 100%.
Work on `O=C(NCc1ccc(N2CCC(c3cc(Cl)cc(Cl)c3F)(C(F)(F)F)C2O)cc1C(F)(F)F)C1CC1` (stereo not drawn) [A1-409, N-{4-[3-(3,5-dichloro-2-fluorophenyl)-2-hydroxy-3-(trifluoromethyl)pyrrolidin-1-yl]-2-(trifluoromethyl)benzyl}cyclopropanecarboxamide] yielded a pest or weed control at 4 ppm ([1]; active compound concentration 4 ppm) of 100%, a pest or weed control at 4 ppm [2] of 100% and a pest or weed control at 4 ppm [3] of 100%. The “insecticidal activity (by feeding damage degree)” value (Thrips palmi) was 98%, the mortality at 100 ppm [4] was 90% and the mortality at 100 ppm (Ctenocephalides felis) was 100%. It also gave a mortality at 100 ppm [5] of 100% and a mortality at 100 ppm (Musca domestica) of 100%.
In the case of `Cc1cc(N2CCC(c3cc(Cl)cc(Cl)c3)(C(F)(F)F)C2O)ccc1CNC(=O)C1CC1` (mixture of isomers) [A1-77], the “activity (mortality)” value [6] is reported as 100%, the “activity (mortality)” value [7] is reported as 100% and the “log P” value [9] is reported as 3.91.
